Results as given in publication PMC8904520, “Characterization of a small-molecule inhibitor targeting NEMO/IKKβ to suppress colorectal cancer growth” (Signal Transduction and Targeted Therapy, 2022).

What was measured:
[1] = test system: LoVo/IKKβmut (D738A/W739A/W741A) xenograft; test: LoVo/IKKβmut xenograft mouse model; type: in vivo, athymic nude mice; parameters: dose or concentration left out as unconfirmed
Procedure: Female athymic nude mice aged 5 weeks were purchased from Beijing Vital River Laboratory Animal Technology Co., Ltd., and kept in the SPF Laboratory Animal Center of Dalian Medical University (Dalian, China). All animals were given free access to sterilized food and water and were habituated for 7 days before the experiments. All procedures were carried out in strict accordance with the recommendations established by the Animal Care and Ethics Committee of Dalian Medical University as well as the guidelines promulgated in the U.S. National Institutes of Health Guide for the Care and Use of Laboratory Animals. LoVo cells (LoVo/wt and LoVo/ mut, 5×10^6 in 100 μL PBS) were injected subcutaneously near the axillary fossa of each nude mouse. Two weeks later, when the formed tumor reached 3-4mm, the animals were divided randomly into three groups with 5 mice in each group. […] The tumors were measured with a caliper once every two days, and the tumor volume was calculated using the formula V = 1/2 (width^2 × length). The body weight of the animals was also recorded. After treatment with SHK for 15 days, all experimental mice were sacrificed and the tumors from each mouse were excised and their weight was measured. […] The stained samples were examined under a Leica DM 4000B fluorescence microscope equipped with a digital camera. […]

LoVo and RKO cells = test: Colony formation assay; type: cell-based, human
Procedure: Detached cells (1 × 10^3 per well) were seeded into six-well plates containing 2 mL of growth medium with 10% FBS and cultured for 24 h. Then, the medium was removed and the cells were treated with various concentrations of SHK. After 24 h, the cells were washed with PBS and supplemented with fresh growth medium. The cells were routinely incubated for about two weeks until colonies were large enough to be visualized. Then, the colonies were stained with 0.1% crystal violet and counted.

CC(C)=CC[C@@H](O)C1=CC(=O)c2c(O)ccc(O)c2C1=O [SHK, Shikonin]
inhibitory effect on tumor growth in LoVo/IKKβ mutant group compared with LoVo/wt [1]: significantly weakened
colony formation (LoVo and RKO cells): colony formation suppression
